Experimental data published in paper PMC9763021, “Comprehensive Assessment of Biomolecular Interactions of Morpholine-Based Mixed Ligand Cu(II) and Zn(II) Complexes of 2,2′-Bipyridine as Potential Anticancer and SARS-CoV-2 Agents: A Synergistic Experimental and Structure-Based Virtual Screening” (Bioinorganic Chemistry and Applications, 2022).

Experiments:
Shigella flexneri = test: Agar disc diffusion, strain E; assay type: cell-based; parameters: (inhibition %): concentration or dose not given beside the values; details: for diameter of the clear zone inhibition: control = 6 mm
Experimental: (§1) In-vitro antimicrobial properties were evaluated for all samples by the agar disc diffusion method towards different fungal and bacterial strains. Additionally, the reported inhibition zone values were comparatively analyzed with the standard antifungal drugs ketoconazole and amphotericin B as well as the standard antibiotic medications streptomycin and amikacin.
(§2) The current research has a curious focus on the in vitro antimicrobial properties of biological systems because these studies are crucial for developing effective antibacterial and antifungal medications. […] It can also be spelled out based on the chelation theory proposed by Overtone and Tweedy. Chelation theory points out that the partial exchanging of the positive charge of the metal center with donor moieties, and overlap of the ligand orbitals will reduce the greater degree of the metal ion's polarity, which ultimately rises the delocalization of π and d electrons over the full chelated ring system. By raising the size of the metal ion due to the retarding of polarization, chelation may also enhance the complexes' lipophilic characteristics, which further stimulate the lipid membrane permeability and break down the bacteria' enzymes responsible for cell wall formation, therefore slowing down the regular cell processes. By preventing the production of cell walls/proteins/DNA, including by obstructing folate metabolism and the cytoplasmic membrane, antimicrobial drugs frequently either fully eliminate microbes or only prevent their cell growth. Additionally, the samples' mode of action may be employed in disrupting the cell's respiration process by forming an H-bond during the morpholine-fused iminic group coordinated with the active metal center of its components, inhibiting proliferation of the cell. […] The difference in the antimicrobial efficacy of some of the compounds towards various microorganisms influences on the impermeability of the cells of the germs or the diversity of ribosomes of the microbes. The % of the inhibition of all substances is estimated from (45) (Table 9).
(§3) (A, B, C, D, and E are represented as gram negative bacteria species Escherichia coli, Salmonella enteric serovar typhi, Salmonella enteric serovar typhi, Pseudomonas aeruginosa, and Shigella flexneri, respectively. F & G are denoted as gram positive bacteria species Staphylococcus aureus and Bacillus cereus. H, I, and J are represented as fungal strains Aspergillus niger, Candida albicans, and Mucor indicus. Standard drugs for bacterial strains: Amikacin & Streptomycin Standard drugs for fungal strains: Ketoconazole and Amphotericin B. [Control (DMSO) = 6 mm].(44) Inhibition %=T–C/T×100, where T and C are represented as the diameter of microbial growth of the sample plates and the control plate (6 mm), respectively. Error limits ±2.5–5.0% (P ≤ 0.05).

[1] = tested on: calf thymus deoxyribonucleic acid; test: DNA binding by viscometric (hydrodynamic) technique
Experimental: The titrations were performed for all compounds including EB (control) at 20, 40, 60, 80, and 100 μM concentrations. In the Ostwald viscometer, these substances were also separately treated with the calf thymus deoxyribonucleic acid solution (100 μM).
Hydrodynamic findings can be utilized to assess the alteration of DNA length and afford details on the binding tendency between small molecules and biomolecules. As a result of their sensitivity to DNA contour length changes, which implies that the average distance between each monomer (cl = 0.338 nm/bp for B-form DNA), the DNA binding properties of all test compounds were further validated by this method. According to the Lerman concept, interactions between small molecules and deoxyribonucleic acid via covalent and noncovalent bindings are often possible. When a chemical substance interacts with the deoxyribonucleic acid double helix, the contour length of DNA increases via intercalation and leads to an increase in the absolute viscosity. Meanwhile, if DNA viscosity is not affected during interactions, which leads to the responsible for the major/minor groove binding due to H-bond/Van der Waals interactions, electrostatic, partial, or nonclassical interaction modes. Therefore, analyzing the binding modes provides additional support for the findings as well as a crucial aspect of the conventional intercalation concept. In this case, it was observed that the absolute viscosity increased consistently along with the concentration of each substance at the fixed DNA concentration. The DNA must extend to facilitate the binding of ligands, which causes a considerable rise in DNA viscosity while small molecules intercalate into the DNA helix. According to equation (12), an increase in relative viscosity denotes an intercalation-induced lengthening of the deoxyribonucleic acid base pair. While adhering to the principle of excluding the nearest neighbors, intercalation entails inserting a planar molecule into a DNA base pair without rupturing the hydrogen bonds that hold the base pairs together. This causes a diminution in the DNA helical twist and an extension of the DNA. Moreover, a molecule can be presumed to bind to deoxyribonucleic acid by intercalation between base pairs if it causes lengthening and unwinding of the deoxyribonucleic acid base pairs. In this case, the relative viscosity of DNA gradually increases, while the […]. Moreover, the affinity interactions and their slope values were observed from the relative specific viscosity (η⁄η0)^1/3 plotted straight line contrasting [Compound]/[DNA], and absolute specific viscosity of deoxyribonucleic acid in the absence or presence of samples was evaluated using equation (12) (Table 3). […] The evaluated slope findings were in the subsequent sequence: (EB) 1.215 > (1a) 0.915 > (2a) 0.630 > (HL) 0.490 (Figure S21 and Table 3). […] Due to the existence of the 2,2′-bipyridine and morpholine-fused aromatic planar systems, compounds can interact with deoxyribonucleic acid robustly via intercalation. The outcomes were excellent in accordance with the observed outcomes of absorption spectral properties.(11) η/η0^1/3=tcomplex−t0/t0/tDNA−t0/t0, where η and η0 are represented as specific viscosity of DNA in the presence complex and specific viscosity of DNA alone, and t0, tDNA, and tcomplex are represented as the average flow time of the Tris-HCl buffer solution, the average flow time of DNA alone solution, and the average flow time of DNA interacted with the samples, respectively. Error limit is ±2.5% (P < 0.025).

[2] = tested on: Salmonella enteric serovar typhi; test: Agar disc diffusion, strain B; assay type: cell-based; details: for diameter of the clear zone inhibition: control = 6 mm
Experimental: as §1, §2, §3

SMILES | (inhibition %) (Shigella flexneri) [%] | diameter of the clear zone inhibition (Shigella flexneri) [mm] | Slope of (η/η0)^1/3 vs [Compound]/[DNA] [1] | Relative specific viscosity (η/η0)^1/3 ([1]; [complex]/[DNA] = 0.2) | Relative specific viscosity (η/η0)^1/3 ([1]; [complex]/[DNA] = 0.4) | Relative specific viscosity (η/η0)^1/3 ([1]; [complex]/[DNA] = 0.6) | Relative specific viscosity (η/η0)^1/3 ([1]; [complex]/[DNA] = 0.8) | Relative specific viscosity (η/η0)^1/3 ([1]; [complex]/[DNA] = 1.0) | (inhibition %) [2] [%] | diameter of the clear zone inhibition [2] [mm]
[Cu+2].[O-]c1ccccc1N=Cc1ccc(N2CCOCC2)cc1.[O-]c1ccccc1N=Cc1ccc(N2CCOCC2)cc1.c1ccc(-c2ccccn2)nc1 [(1a), [Cu(L)2(bpy)]] | 45 | 11 | 0.915 | 0.88 | 1.11 | 1.22 | 1.38 | 1.66 | 40 | 10
Oc1ccccc1N=Cc1ccc(N2CCOCC2)cc1 [(HL), 2-(4-morpholinobenzylideneamino)phenol] | 57 | 14 | 0.490 | 0.61 | 0.67 | 0.75 | 0.85 | 1.01 | 33 | 09
[O-]c1ccccc1N=Cc1ccc(N2CCOCC2)cc1.[O-]c1ccccc1N=Cc1ccc(N2CCOCC2)cc1.[Zn+2].c1ccc(-c2ccccn2)nc1 [(2a), [Zn(L)2(bpy)]] | 45 | 11 | 0.630 | 0.74 | 0.81 | 0.87 | 1.03 | 1.26 | 33 | 09
